Assay results from the supplement of paper PMC10307832.

Compound: CCN1C(=O)C2=CC(=C(N=C2N(C1=O)C3CC3)N)C(=O)N
Experiment: relative viability (nuclei count vs DMSO), 5 days (fraction); higher = more cells survive
Outline: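 A plate was accepted only when its control CV was below 25% and the cells had doubled at least once. Viability is defined from nuclear counts as treated wells divided by vehicle wells, with the median taken across plates. That median covers lung cancer cell lines grown in 1536-well plates, dosed by pinning at five √10-spaced library-drug concentrations, and counted in MetaXpress from 4× Hoechst images after 5 days.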

Cell Line | relative viability (0.253 µM) | relative viability (0.8 µM) | relative viability (2.53 µM) | relative viability (8 µM)
201T | 0.993 | 0.948 | 1.04 | 0.964
A549 | 0.985 | 1.02 | 0.962 | 0.956
A-427 | 1.02 | 0.991 | 1.03 | 1.03
ABC-1 | 0.986 | 0.686 | 1 | 0.841
BEN | 0.952 | 0.885 | 1.11 | 1.02
CAL-12T | 1 | 0.964 | 1.02 | 1.02
COR-L23 | 1.01 | 0.962 | 1.04 | 1.12
COR-L 105 | 0.979 | 0.841 | 0.875 | 0.963
ChaGo-K-1 | 1.12 | 0.949 | 0.973 | 0.924
EKVX | 1.01 | 0.955 | 0.959 | 0.913
EMC-BAC-2 | 1.39 |  | 1.14 | 1.07
EPLC-272H | 0.891 | 0.863 | 0.999 | 1.09
H3255 | 0.995 | 0.906 | 1.01 | 0.929
HARA | 0.975 | 0.927 | 0.947 | 0.918
HCC-15 | 0.943 | 1.02 | 0.994 | 1.03
HCC-44 | 1.01 | 0.958 | 1.03 | 0.972
HCC-78 | 0.947 | 0.939 | 1.04 | 0.994
HCC-366 | 0.981 | 0.968 | 0.996 | 1.03
HCC-827 | 1.1 | 1.02 | 1.03 | 1.01
HOP-62 | 1.01 | 1.03 | 1 | 1.03
IA-LM | 0.952 | 0.75 | 0.877 | 0.825
LC-2-ad | 0.915 | 0.937 | 1 | 0.977
LCLC-97TM1 | 0.936 | 0.792 | 0.977 | 0.879
LCLC-103H | 1.02 | 0.928 | 0.924 | 0.999
LK-2 | 0.979 | 0.981 | 1.03 | 1.04
LOU-NH91 | 0.838 | 0.921 | 0.996 | 0.944

Cell Line | relative viability (0.253 µM) | relative viability (0.8 µM) | relative viability (2.53 µM) | relative viability (8 µM)
LU99A | 0.856 | 0.997 | 0.904 | 0.984
LXF-289 | 1.01 | 1.07 | 0.972 | 1.01
NCI-H23 | 0.86 | 0.96 | 0.977 | 0.984
NCI-H322M | 0.959 | 0.929 | 0.984 | 0.996
NCI-H358 | 1.05 | 0.913 | 0.924 | 0.954
NCI-H441 | 1.1 | 1.04 | 0.965 | 1.03
NCI-H460 | 0.976 | 0.989 | 0.967 | 0.972
NCI-H520 | 0.985 | 1.02 | 0.972 | 0.904
NCI-H522 | 0.876 | 0.985 | 0.983 | 0.906
NCI-H596 | 0.933 | 0.984 | 1.06 | 0.971
NCI-H647 | 1.02 | 0.896 | 0.993 | 0.924
NCI-H650 | 0.955 | 0.916 | 0.962 | 0.849
NCI-H661 | 1.03 | 0.991 | 0.972 | 0.961
NCI-H727 | 0.98 | 0.892 | 0.976 | 0.828
NCI-H838 | 0.99 | 0.965 | 0.923 | 0.96
NCI-H1355 | 1 | 0.998 | 0.992 | 0.973
NCI-H1395 | 0.935 | 0.972 | 1.08 | 0.921
NCI-H1437 | 0.982 | 0.979 | 0.969 | 0.972
NCI-H1563 | 0.975 | 1 | 0.955 | 0.929
NCI-H1650 | 0.937 | 0.932 | 0.901 | 0.877
NCI-H1651 | 0.929 | 0.976 | 0.965 | 0.948
NCI-H1666 | 0.93 | 0.986 | 0.959 | 0.938
NCI-H1703 | 0.953 | 0.871 | 0.886 | 1.07
NCI-H1734 | 0.9 | 0.903 | 0.948 | 0.943
NCI-H1755 | 0.984 | 1.02 | 1 | 0.979
NCI-H1792 | 0.763 | 0.786 | 1.08 | 0.832

Cell Line | relative viability (0.253 µM) | relative viability (0.8 µM) | relative viability (2.53 µM) | relative viability (8 µM)
NCI-H1793 | 0.808 | 1.02 | 0.815 | 1.12
NCI-H1915 | 0.988 | 1.01 | 1 | 0.922
NCI-H1944 | 1.01 | 0.919 | 0.954 | 0.827
NCI-H1975 | 1.01 | 0.917 | 0.957 | 0.892
NCI-H1993 | 0.972 | 0.83 | 0.919 | 0.878
NCI-H2009 | 1.02 | 1 | 0.946 | 0.923
NCI-H2023 | 0.937 | 0.901 | 0.836 | 0.896
NCI-H2085 | 1.01 | 0.99 | 0.941 | 0.966
NCI-H2087 | 0.972 | 1.14 | 1.05 | 1.03
NCI-H2126 | 1.02 | 0.989 | 0.972 | 0.963
NCI-H2170 | 0.983 | 0.928 | 1.02 | 0.925
NCI-H2228 | 0.99 | 1.01 | 0.902 | 0.965
NCI-H2342 | 1.04 | 0.821 | 0.907 | 0.948
NCI-H2347 | 0.98 | 1.04 | 1.08 | 1
NCI-H2405 | 1.09 | 1.02 | 1.06 | 0.982
NCI-H3122 | 1.01 | 1.01 | 0.993 | 0.956
PC-3 [JPC-3] | 1.06 | 1.01 | 1.06 | 1.08
PC-14 | 0.983 | 0.951 | 1.07 | 1.06
RERF-LC-KJ | 1.02 | 0.929 | 0.909 | 0.959
SK-LU-1 | 1.05 | 1.07 | 1.06 | 1.06
SK-MES-1 | 1.01 | 0.972 | 0.976 | 0.997
SW 900 | 0.672 | 0.717 | 0.785 | 0.786
SW 1573 | 0.937 | 1.07 | 0.959 | 0.978
UMC-11 | 0.946 | 0.935 | 0.951 | 0.969
